Results: US20040023924A1, “Use of xyloglucan polymers and oligomers, and derivative compounds, as phytosanitary products and biofertilizers” (priority 2000, published 2004)

Tests used:
[1] = tested on: 1,3 β-D-glucanase (EC 3.2.1.39); assay: Induction of a 1,3 β-D-glucanase response in elicited cells; assay type: cell-based, Acer pseudoplatanus L.; settings: 50 nM elicitor; for 1,3 β-D-glucanase response R: 42 hours; for 1,3 β-D-glucanase early response R: after 20 minutes
Experimental: Vegetable material: Acer pseudoplatanus L Cells in Suspension
Test: 2.10^6 Acer pseudoplatanus L. cells were elicited under circular stirring (80 rpm), in 25 ml of culture medium (without 2,4-D) by 50 nM of 2′-fucosyl lactose (compound A) or 50 nM of methyl α-L-Fuc (1→2) β-D-Gal (1→2) β-D-Xyl trisaccharide (compound B)(synthesized according to Lopez et al., 1994) or for a variable time (0 to 42 hours) in the presence or not in the presence of an effector: cycloheximide (1 μM), okadaic acid (5 nM), staurosporine (500 nM), or boroglycine (500 nM). The elicitation experiment is stopped by putting the cells in ice. The cells recovered after decantation and taken up in approximately 1 ml of elicitation buffer are the subject of a specific protein extraction.
D-glycosylhydrolase extraction. The enzyme extracts are prepared from elicited or non-elicited cells. The cells are homogenized at 0° C. in Tris-HCl buffer (50 mM pH 7.2) containing 1 M of NaCl with a Vibracell™ Bioblock sonicator, maximum power, for 3 times 1 minute. The homogenates are centrifuged at 4° C. (12000 g, 15 minutes) then dialysed and concentrated on Ultrafree™ Millipore ultrafiltration units (cut-off threshold 10 kDa). The retentates, taken up in distilled water, are crude extracts.
1,3 β-D-glucanase activity assay. This is based on colorimetric assay (ferricyanide test of Kidby and Davidson (1973) of the substrate reducing units (laminarin or laminarin hexamer) released during the hydrolysis. The reaction medium contains the enzyme extract (1 μg of proteins), the substrate (5 μM of reduced laminarin hexamer) in 100 μl of sodium acetate buffer (0.1 M), pH 5.0); the enzymatic reaction at 40° C. develops over a variable time (1 to 3 hours).
Evaluation of the experimental data. At least 2 kinetics were carried out per sample, and per set of experiments. The reaction rate (ΔA410 minutes^−1 for example) is obtained by linear regression from 4 kinetic curves. The results are expressed by the ratio R (enzymatic activity in elicited cells/enzymatic activity in non-elicited control cells).

vine = assay: Induction of cold resistance in the vine (cold protection index after foliar spraying); assay type: in vivo, vine (variety Chenin); settings: vine plants
Experimental: Plants originating from different vine varieties (Chenin, Grolleau, Carignan, Cabernet sauvignon, Cabernet Sauvignon, Pinot noir, Merlot, Chardonnay, Gamay etc.) are used for the study. Each sample, comprising 5 to 10 plants, is treated with foliar spraying at the end of the bud development (starting from vegetative stage 7 on the BBCH scale), or during the inflorescence development period (starting from vegetative stage 12) or at the start of flowering (as from stage 19), with the elicitor (oligomer: XXFG; derivative: 2′-fucosyl lactose) in solution at a variable dose (0.03 mg/l ≦dose≦3.3 mg/l; the spraying of 2.5 ml of solution per plant is carried out using a hand sprayer (deviation of +/−1%).
After treatment, the plants are exposed to cold stress of variable duration and intensity (for example, temperature varying from −2° C. to −5° C.; duration less than or equal to 240 minutes).
After exposure to the cold, the plants are placed in a climatic chamber at 20° C. with a 12-hour day/night alternation. […] The effects of the cold are evaluated by observing the foliar necroses induced by frost and the plants are kept for several months in order to monitor their subsequent development.
The proportion P (%) of foliar necroses observed 3 hours or 24 hours or 48 hours or 72 hours after the cold stress is counted, and the results are expressed by the protection index I=(100-P) %. […]

[2] = tested on: Phospholipase D (E.C: 3.1.4.4); assay: Elicitation of phospholipase D activity (NBD-PE fluorescence); assay type: cell-based, Acer pseudoplatanus L.; settings: for Optimal Plase D response (100% = non-elicited cells): at the optimal concentration
Description: Vegetable material: Acer pseudoplatanus L. cells in Suspension
Phospholipase D (E.C: 3.1.4.4) (Plase D) activity: this is a phosphatidylcholine phosphatidohydrolase which releases the O-R3 group, according to the diagram below. To the extent that O-R3 is marked (a fluorochrome for example), quantifying this group is equivalent to assaying Plase D activity. For the experiments the substrate used is phosphatidylcholine conjugated to a fluorochrome, i.e. the product nitrobenzoxadiazole phosphoethanolamine (NBD-PE). The retained excitation and emission wavelengths of the fluorochrome are 460 nm and 534 nm respectively. [drawing 5]
Principle: assaying Plase D activity is equivalent to estimating the fluorescence variation at 534 nm of a reaction medium with a spectrofluorimeter (Perkin Elmer).
Test: the reaction medium in a microtitration plate well is as follows: 1.3 10^7 Acer pseudoplatanus L. cells are incubated in a 50 mM HEPES buffer, pH 6.8 enriched with CaCl2 (1 μM), ATP (2 μM), octyl-D-glucoside 50 μM, GTP (6 μM) in the presence of the NBD-PE substrate (4 μM), in the presence or absence of an elicitor (0-100 nM): 2′-fucosyl-lactose (FL), compound A; XXFGol, compound B, in the presence or not in the presence of a methyl jasmonate effector (0-5 nM). The Plase D activity assay is carried out by measuring the fluorescence at 534 nm.
Evaluation of the experimental data. For each sample at least three kinetics are recorded; the Plase D activity is given by the slope of the regression curve. The results are expressed by Δ F534 min^−1. One point on the graph corresponds to the linear regression treatment of at least 2 kinetic curves originating from 2 different samples.
The Plase D elicitation response is evaluated according to the fluorescence variation at […]; the 100% reference value corresponds to the fluorescence in the controls (non-elicited cells)

Elicitor concentration of optimal Plase D response [2] [nM]	Plase D elicitation: methyl jasmonate versus 2′-fucosyl lactose ([2]; methyl jasmonate 0 to 5 nM, 2′-fucosyl lactose 1 nM, dose-dependent)	Structure (SMILES)	1,3 β-D-glucanase response R [1]	1,3 β-D-glucanase early response R [1]	Cold-resistance-inducer effect, efficiency compared with XXFG (vine)	Optimal Plase D response (100% = non-elicited cells) [2] [%]
1	antagonistic	C[C@@H]1O[C@@H](O[C@H]2[C@H](O[C@H]3[C@H](O)[C@@H](O)[C@H](O)O[C@@H]3CO)O[C@H](CO)[C@H](O)[C@@H]2O)[C@@H](O)[C@H](O)[C@@H]1O [compound A, α-L-Fuc(1→2)β-D-Gal(1→4)β-D-Glc]	~12	~3	equal or slightly lower efficiency	244
1.7	–	CO[C@@H]1OC[C@@H](O)[C@H](O)[C@H]1O[C@@H]1O[C@H](CO)[C@H](O)[C@H](O)[C@H]1O[C@@H]1O[C@@H](C)[C@@H](O)[C@@H](O)[C@@H]1O [compound B, methyl α-L-Fuc (1→2)β-D-Gal (1→2)β-D-Xyl]	~12	~3	–	230
